The subject of data set [1] is T cells isolated from mouse spleens. In words: T cell proliferation inhibition (CFSE flow cytometry, anti-CD3/anti-CD28 stimulation). It counts as cell-based. To be noted: mouse spleen T cells, 3 days; for inhibition at 0.01 µM / inhibition at 0.1 µM / inhibition at 1 µM / inhibition at 10 µM / inhibition at 30 µM / inhibition at 50 µM: Mus musculus, T-cell, 72 h, read-out: Proliferation inhibition rate (%). The gist of the method: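 Proliferation inhibition (%) came from flow cytometry of CFSE dilution after 3 days' culture at 37 °C with compound (10 nM, 100 nM, 1, 10, 30, 50 μM; triplicate wells). Cells were magnetically purified T cells from C57BL/6 mouse spleens, 2×10^5 per well, stimulated with 0.5 μg/mL each anti-CD3 and anti-CD28.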
In general terms: In flow cytometry, cells or beads pass a laser one at a time.

Data set [2] deals with Human B Lymphocyte cell line, SU-DHL-8. In words: Relative cell viability CCK-8, SU-DHL-8. The data set is classed as cell-based. The following applies: for viability at 1 µM / viability at 10 µM / viability at 30 µM / viability at 50 µM: Homo sapiens, SU-DHL-8, 48 h; for viability at 1 µM: read-out: Relative cell viability (%), SU-DHL-8, 1 μM; for viability at 10 µM: read-out: Relative cell viability (%), SU-DHL-8, 10 μM; for viability at 30 µM: read-out: Relative cell viability (%), SU-DHL-8, 30 μM; for viability at 50 µM: read-out: Relative cell viability (%), SU-DHL-8, 50 μM. The protocol:
Human-derived B lymphoma cell line SU-DHL-8 (Cat. #CRL-2961) purchased from ATCC was cultured in RPMI-1640 medium containing 10% FBS, 100 U/mL penicillin, and 100 μg/mL streptomycin.
The cell culture medium was then harvested, centrifuged at 1,300 rpm for 5 minutes, and the supernatant was removed. The cells were resuspended in the same medium and dispensed into a 96-well plate (Costar 96-well cell culture plate, Corning) at 90 μL per well, resulting in the conditions specified in Table 5.
Then, 10 μL of CCK-8 was added to each well, and the plates were incubated again at 37° C. in a 5% CO2 incubator for 4 hours.
In other words, when the survival rate of untreated cells (DMSO) is set at 100%, the relative cell survival rate in each group treated with the drug at different concentrations is indicated.

Where [3] appears, read: 48 hours, untreated (DMSO) = 100%.
The mark [4] stands for this setting: 1 μM, 48 hours, untreated (DMSO) = 100%.
[5] abbreviates: 10 μM, 48 hours, untreated (DMSO) = 100%.
Setting [6] is: 30 μM, 48 hours, untreated (DMSO) = 100%.
The mark [7] stands for this setting: 50 μM, 48 hours, untreated (DMSO) = 100%.

Take `CC1C2CCCN2CCN1CCCCCCCCCCCCNC(=O)c1cccnc1N` (centres unmarked) [Compound 29, 2-Amino-N-(12-(1-methylhexahydropyrrolo[1,2-a]pyrazin-2 (1H)-yl)dodecyl)nicotinamide]: the inhibition at 0.01 µM in data set [1] (compound 10 nM) is 4.15%. The inhibition at 0.1 µM in data set [1] (compound 100 nM) was 100%. The inhibition at 1 µM in data set [1] (compound 1 μM) was 100%. In addition, the inhibition at 10 µM in data set [1] (compound 10 μM) stood at 100%. Also, the inhibition at 30 µM in data set [1] (compound 30 μM) was 100%. Further, in data set [1] (compound 50 μM), the inhibition at 50 µM was 100%. In data set [2] (setting [3]), the viability (usually the share of living cells, or the viability signal relative to a control) at 1 µM was found to be 3.85%; the viability at 10 µM was found to be 1.86%; the viability at 30 µM came to 1.25%; the viability at 50 µM was 1.03%.

As to `Nc1ncccc1C(=O)NCCCCCCCCCCCCN1CC2CCCC2C1` (centres unmarked) [Compound 46, 2-Amino-N-(12-(hexahydrocyclopenta[c]pyrrol-2 (1H)-yl)dodecyl)nicotinamide], the inhibition at 0.01 µM in data set [1] (compound 10 nM) was -10.5%. The inhibition at 0.1 µM in data set [1] (compound 100 nM) is 100%. For the same compound, the inhibition at 1 µM in data set [1] (compound 1 μM) is 100%. Also, the inhibition at 10 µM in data set [1] (compound 10 μM) was found to be 100%. For the same compound, the inhibition at 30 µM in data set [1] (compound 30 μM) came out at 100%. Also, the inhibition at 50 µM in data set [1] (compound 50 μM) is 100%. In data set [2] (setting [3]), the viability at 1 µM is 4.8%, the viability at 10 µM is 2.44% and the viability at 30 µM stood at 2.08%. The “Relative cell viability (%), SU-DHL-8” value in data set [2] (human, 48 h, 50 µM) is reported as −0.92%.

`CN1CCN(C2CCN(CCCCCCCCCCCCNC(=O)c3cccnc3N)CC2)CC1` [Compound 124, 2-Amino-N-(12-(4-(4-methylpiperazin-1-yl)piperidin-1-yl)dodecyl)nicotinamide]: the inhibition at 0.01 µM in data set [1] (compound 10 nM) was found to be 0%. In data set [1] (compound 100 nM), the inhibition at 0.1 µM amounted to 20%. In data set [1] (compound 1 μM), the inhibition at 1 µM turned out to be 30%. Besides, the inhibition at 10 µM in data set [1] (compound 10 μM) is 100%. Further, the inhibition at 30 µM in data set [1] (compound 30 μM) turned out to be 100%. In data set [1] (compound 50 μM), the inhibition at 50 µM stood at 100%. Moreover, in data set [2] (setting [3]), the viability at 1 µM was determined as 30.4%, the viability at 10 µM was 30.7%, the viability at 30 µM came to 32.1% and the viability at 50 µM worked out at 31.7%.

Turning to `Nc1ncccc1C(=O)NCCCCCCCCCCCCN1CCS(=O)(=O)CC1` [Compound 25, 2-Amino-N-(12-(1,1-dioxidothiomorpholino)dodecyl) nicotinamide], the “Proliferation inhibition rate (%)” value in data set [1] (compound 10 nM) is on record as −2.67%; in data set [1] (compound 100 nM), 89.43%; in data set [1] (compound 1 μM), 100.00%; in data set [1] (compound 10 μM), 100.00%; in data set [1] (compound 30 μM), 100.00%; in data set [1] (compound 50 μM), 100.00%. Further, the “Relative cell viability (%), SU-DHL-8” value in data set [2] (setting [4]) worked out at 9.73%; in data set [2] (setting [5]), 1.26%; in data set [2] (setting [6]), 0.11%; in data set [2] (setting [7]) it was 0.95%.

`Cl.Nc1ncccc1C(=O)NCCCCCCCCCCCCF` [Compound 69, 3-(12-fluoro-dodecylcarbamoyl)-pyridin-2-yl-ammonium chloride]: the “Proliferation inhibition rate (%)” value in data set [1] (compound 10 nM) is listed as −4.04%; in data set [1] (compound 100 nM) it was −4.66%; in data set [1] (compound 1 μM), 7.14%; in data set [1] (compound 10 μM) it was 65.36%; in data set [1] (compound 30 μM) it was 89.94%; in data set [1] (compound 50 μM), 99.20%. Also, the “Relative cell viability (%), SU-DHL-8” value in data set [2] (setting [4]) was 27.80%; in data set [2] (setting [5]), 15.16%; in data set [2] (setting [6]) it was 1.05%; in data set [2] (setting [7]) it was 0.77%.
